Data published in patent publication US8202555B2, “Natural pharmaceutical preparations for increasing albumin” (priority 2009, dated 2012).

Tests used:
SIV = conditions: general statement, no own test; cited from earlier work
[1] = Serum albumin in rats with intra-abdominal infection; type: in vivo; conditions: 30 mg/kg
Text: The mice are divided into 6 groups (n=10), i.e., Normal control group, Negative control group, Positive control group (Panaxoside), in the remaining 3 groups, rats were fed with preparation 1 through intragastric administration for 6 days. Under anesthesia by diethyl ether, abdominal cavity of mice were cut open, experimental staff stick a puncture on appendices with needle to cause it infected, then sew up abdominal wound. Continue administration after surgery, animals were executed for collecting their blood to measure serum albumin levels, results are listed in Table 7.

[2] = Tuberculous pleural effusions and serum albumin in BCG-sensitized guinea pigs; type: in vivo; conditions: 5 mg/kg, 7 days
Text: After sensitizing with BCG for 42 days, guinea pig was administrated with preparations for 7 days, sensitized for 2 days continuously, then measured the level of Pleural Effusion, number of white blood cell and content of serum albumin

[3] = CCl4-induced liver injury (cirrhosis with ascites) in rats: serum proteins, ascites, fibrosis markers; type: in vivo, rat; conditions: 4 weeks
[4] = test system: HR-resistant (Isoniazid and Rifampicin) tubercle bacillus; type: cell-based; conditions: serum of mice dosed 25 mg/kg, 10% serum
H37Rv Tubercle Bacillus = assay: Anti-tubercle bacillus assay in vivo, total lung bacterial count; conditions: infected C57BL/6 mice, 25 mg/kg
Method: Anti-tubercle bacillus assay is tested in vivo. C57BL/6 mice infected with H37Rv Tubercle Bacillus are divided into 6 groups (n=15), one is normal control group, another is positive control group (INH: 25 mg/kg), in other groups, preparations was added into mice's feed, animals are administrated consecutive 16 weeks.
Experimental staff Killed 5 mice at the 2nd, 4th, 16th week, obtained lung and spleen, put them into 1 ml 7H9 media, grinded and converted them into 1.5 ml Ep tube, doublely diluted 10 times with 7H9 media, then Plated different dilutions onto 7H11 solid media plates for 4w at 37° C., counted tuberculosis colonys.
Calculation Formula: (initial number of clone×final broth volume×dilution factor 10^3×2×10)+(initial number of clone colony×final broth volume×dilution factor 10^4×2×10)+(initial number of clone colony×final broth volume×dilution factor 10^5×2×10)/3
Take tissue for pathological examination, weight lung, Calculation Formula: (initial number of clone×final broth volume×dilution factor 10^3×2×10)+(initial number of clone colony×final broth volume×dilution factor 10^4×2×10)+(initial number of clone colony×final broth volume×dilution factor 10^5×2×10)/3×initial organ weight/organ weight in treatment.
Count number of Lung bacterial or mouse spleen CFU of every mouse in each group, convert data in accordance with 1 g (CFU).

[5] = test system: HRSE-resistant (Isoniazid, Rifampicin, Streptomycin, Ethambutol-resistant) tubercle bacillus; type: cell-based; conditions: serum of mice dosed 25 mg/kg, 10% serum
[6] = test system: H-resistant (Isoniazid) tubercle bacillus; type: cell-based; conditions: serum of mice dosed 25 mg/kg, 10% serum
[7] = test system: R-resistant (Rifampicin) tubercle bacillus; type: cell-based; conditions: serum of mice dosed 25 mg/kg, 10% serum
[8] = CCl4 rats with ascites, 0.23 mg/kg intragastrically

Compound: Cc1cn([C@H]2C[C@H](N=[N+]=[N-])[C@@H](CO)O2)c(=O)[nH]c1=O [AZT, Zidovudine]
- inhibition of infection by SIV (SIV): could not inhibited infection

Compound: Panaxoside
- ALB [1]: 29.64 ± 2.29 g/L

Compound: C[C@@H]1C[C@H]2[C@@H]3CCC4=CC(=O)C=C[C@]4(C)[C@@]3(F)[C@@H](O)C[C@]2(C)[C@@]1(O)C(=O)CO [Dexamethasone]
- ALB [2]: 29.05 ± 3.49 g/L
- Exudates volumes [2]: 1.2 ± 0.44 mL
- WBC [2]: 19.1 ± 5.24 ×109

Compound: COc1cc2c(c(OC)c1OC)-c1ccc(OC)c(=O)cc1[C@@H](NC(C)=O)CC2 [Colchicine, colchicine]
- ALB [3, 8]: 38.1 ± 5.6 g/L
- ALB/GLB [3, 8]: 2.8 ± 1.6
- GLB [3, 8]: 17.1 ± 7.7 g/L
- Incidence (ascites) ([3]; CCl4 rats, 0.23 mg/kg): 50%
- Animal with ascites n ([3]; CCl4 rats, 0.23 mg/kg, of 10 animals): 5
- HPRO ([3]; CCl4 rats, liver, 0.23 mg/kg): 0.29 ± 0.08 mg/g (Liver Weight)

Compound: NNC(=O)c1ccncc1 [INH, Isoniazid]
- Inhibition rate of serum, HR-resistance [4]: 67%
- Total Lung bacterical count, Mean lg (CFU ± SEM) (H37Rv Tubercle Bacillus; 2 w): 6.12 ± 0.22 lg (CFU)
- Total Lung bacterical count, Mean lg (CFU ± SEM) (H37Rv Tubercle Bacillus; 4 w): 5.59 ± 0.20 lg (CFU)
- Total Lung bacterical count, Mean lg (CFU ± SEM) (H37Rv Tubercle Bacillus; 16 w): 2.77 ± 0.16 lg (CFU)
- Inhibition rate of serum, HRSE-resistance [5]: 21%
- Inhibition rate of serum, H-resistance [6]: 0%
- Inhibition rate of serum, R-resistance [7]: 72%
